Source: patent US7943568B2, “Antitumor agents” (The Ohio State University Research Foundation, priority 2005, dated 2011)
“Also recorded” adds a separate entry of the source. Where a name gives a salt, the structure may show the parent alone. Read-outs that look alike come from different tables or passages of the source.

Legend:
RBC GSH = RBC GSH depletion by DEM pretreatment in the rat; type: in vivo
[1] = Rat pharmacokinetics of FK228; type: in vivo; details: for AUC(0-inf) / Cmax / MRT / clearance / Vd: male, Sprague-Dawley, plasma, iv; for clearance: read-out: Cltotal; for Vd: read-out: Vdss
Protocol: (§1) Pharmacokinetics and tissue distribution studies in the rat Twenty-three male S.D. rates weighing 250-300 g were divided into 5 groups. All rats were cannulated by the left jugular vein under ketamine anesthesia (im, 100 mg/kg) for drug administration and/or blood sampling. The rats were kept in metabolism cages and allowed to recover overnight with food and water given ad libitum. The animal protocols were approved by the Institutional Laboratory Animal Care and Use Committee (ILACUC) of the Ohio State University Laboratory Animal Resources (ULAR), and adhered to the guideline and “Principles of Laboratory Animal Care” by National Institutes of Health (NIH).
(§2) At the time schedule of predose, 5, 10, 20, […], 60, 120, 180, 300 minutes after doing, blood samples of 0.2 mL each were withdrawn from the same cannula with an equal volume of normal saline. Plasma was separated immediately by centrifugation (10,000 g×0.5 min.) extracted with 10-volume ethyl acetate. After centrifugation, the organic layer was transferred into a clean conical Falcon polypropylene tube, and evaporated under a stream of nitrogen. […] Weighed wet organ tissue samples were homogenized in appropriate volumes of blank human plasma with an Ultra-Turrax SDT1610 electric homogenizer (Tekmar, Cincinnati, Ohio) at the highest speed setting for 10 seconds 4 times. […] The homogenates were then extracted and determined as in plasma samples (Chan, et al. 1997; Li and Chan, 2000). Feces samples were homogenized similarly as above. After centrifugation, the supernatant was extracted and determined as plasma samples.
(§3) A 2 mm×50 mm Keystone BetaBasic-C8 column (Keystone, Bellefonte, Pa.) and an isocratic elution were used with the mobile phase consisting of 70% acetonitrile and 0.1% acetic acid at a flow rate of 0.2 mL/min. The flow leaving the HPLC column was split in a ratio of 20:1, with only 10 μL/min. entering the mass spectrometer. All samples were determined by individual calibration curves using specific blank sample matrix. […] While the recoveries from rat muscle and fat samples were further normalized to whole body weight assuming the muscle and fat compose 40 and 4% of the rat total body weight, respectively (Davies and Morris, 1993).

[2] = FK228 stability and protein binding in human plasma; type: in vitro ADME
[3] = i.v. bolus, for 250 g rats; cited from earlier work
Pgp [4] = target: T1, Pgp (Homo sapiens, UniProt P08183); details: multiple cellular models
T1 sequence (P08183 whole entry): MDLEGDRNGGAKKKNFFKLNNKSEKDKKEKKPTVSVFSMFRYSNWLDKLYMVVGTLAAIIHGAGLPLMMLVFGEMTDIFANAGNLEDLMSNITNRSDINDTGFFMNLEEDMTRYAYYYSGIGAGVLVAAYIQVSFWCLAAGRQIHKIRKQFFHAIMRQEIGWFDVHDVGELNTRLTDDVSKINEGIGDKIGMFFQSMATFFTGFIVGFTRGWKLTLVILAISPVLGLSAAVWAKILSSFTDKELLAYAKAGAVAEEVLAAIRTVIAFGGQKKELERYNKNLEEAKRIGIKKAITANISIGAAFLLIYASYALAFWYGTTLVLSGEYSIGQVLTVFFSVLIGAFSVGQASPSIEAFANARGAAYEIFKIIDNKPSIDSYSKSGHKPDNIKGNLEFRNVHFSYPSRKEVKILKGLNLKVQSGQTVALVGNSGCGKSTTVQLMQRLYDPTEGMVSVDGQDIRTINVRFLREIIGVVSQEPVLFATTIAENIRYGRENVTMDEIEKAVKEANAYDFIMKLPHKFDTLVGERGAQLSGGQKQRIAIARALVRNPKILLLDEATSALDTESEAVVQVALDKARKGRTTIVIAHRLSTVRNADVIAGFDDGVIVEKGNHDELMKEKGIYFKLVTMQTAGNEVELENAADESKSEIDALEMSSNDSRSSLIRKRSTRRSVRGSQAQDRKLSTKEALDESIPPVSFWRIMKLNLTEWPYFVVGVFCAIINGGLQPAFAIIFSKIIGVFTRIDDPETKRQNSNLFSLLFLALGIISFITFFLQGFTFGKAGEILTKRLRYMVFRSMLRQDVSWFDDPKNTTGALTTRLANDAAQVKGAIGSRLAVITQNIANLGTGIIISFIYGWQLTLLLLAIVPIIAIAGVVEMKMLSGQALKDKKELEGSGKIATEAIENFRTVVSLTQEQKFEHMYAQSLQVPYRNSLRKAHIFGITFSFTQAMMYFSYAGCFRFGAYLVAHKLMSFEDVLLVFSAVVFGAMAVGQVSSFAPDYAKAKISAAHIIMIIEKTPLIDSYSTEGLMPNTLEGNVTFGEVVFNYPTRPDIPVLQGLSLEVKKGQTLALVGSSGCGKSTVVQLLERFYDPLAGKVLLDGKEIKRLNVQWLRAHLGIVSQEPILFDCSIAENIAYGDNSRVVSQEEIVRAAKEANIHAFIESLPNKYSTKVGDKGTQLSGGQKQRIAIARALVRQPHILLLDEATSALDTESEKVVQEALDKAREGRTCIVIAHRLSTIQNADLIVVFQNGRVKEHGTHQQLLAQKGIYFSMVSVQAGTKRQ

[5] = In vitro rat blood distribution / RBC uptake of FK228
[6] = target: multidrug resistant-associated protein 1 (MRP1) (Homo sapiens, UniProt P33527); details: multiple cellular models
Sequence of multidrug resistant-associated protein 1 (MRP1) (P33527 whole entry, the tested form may be a part): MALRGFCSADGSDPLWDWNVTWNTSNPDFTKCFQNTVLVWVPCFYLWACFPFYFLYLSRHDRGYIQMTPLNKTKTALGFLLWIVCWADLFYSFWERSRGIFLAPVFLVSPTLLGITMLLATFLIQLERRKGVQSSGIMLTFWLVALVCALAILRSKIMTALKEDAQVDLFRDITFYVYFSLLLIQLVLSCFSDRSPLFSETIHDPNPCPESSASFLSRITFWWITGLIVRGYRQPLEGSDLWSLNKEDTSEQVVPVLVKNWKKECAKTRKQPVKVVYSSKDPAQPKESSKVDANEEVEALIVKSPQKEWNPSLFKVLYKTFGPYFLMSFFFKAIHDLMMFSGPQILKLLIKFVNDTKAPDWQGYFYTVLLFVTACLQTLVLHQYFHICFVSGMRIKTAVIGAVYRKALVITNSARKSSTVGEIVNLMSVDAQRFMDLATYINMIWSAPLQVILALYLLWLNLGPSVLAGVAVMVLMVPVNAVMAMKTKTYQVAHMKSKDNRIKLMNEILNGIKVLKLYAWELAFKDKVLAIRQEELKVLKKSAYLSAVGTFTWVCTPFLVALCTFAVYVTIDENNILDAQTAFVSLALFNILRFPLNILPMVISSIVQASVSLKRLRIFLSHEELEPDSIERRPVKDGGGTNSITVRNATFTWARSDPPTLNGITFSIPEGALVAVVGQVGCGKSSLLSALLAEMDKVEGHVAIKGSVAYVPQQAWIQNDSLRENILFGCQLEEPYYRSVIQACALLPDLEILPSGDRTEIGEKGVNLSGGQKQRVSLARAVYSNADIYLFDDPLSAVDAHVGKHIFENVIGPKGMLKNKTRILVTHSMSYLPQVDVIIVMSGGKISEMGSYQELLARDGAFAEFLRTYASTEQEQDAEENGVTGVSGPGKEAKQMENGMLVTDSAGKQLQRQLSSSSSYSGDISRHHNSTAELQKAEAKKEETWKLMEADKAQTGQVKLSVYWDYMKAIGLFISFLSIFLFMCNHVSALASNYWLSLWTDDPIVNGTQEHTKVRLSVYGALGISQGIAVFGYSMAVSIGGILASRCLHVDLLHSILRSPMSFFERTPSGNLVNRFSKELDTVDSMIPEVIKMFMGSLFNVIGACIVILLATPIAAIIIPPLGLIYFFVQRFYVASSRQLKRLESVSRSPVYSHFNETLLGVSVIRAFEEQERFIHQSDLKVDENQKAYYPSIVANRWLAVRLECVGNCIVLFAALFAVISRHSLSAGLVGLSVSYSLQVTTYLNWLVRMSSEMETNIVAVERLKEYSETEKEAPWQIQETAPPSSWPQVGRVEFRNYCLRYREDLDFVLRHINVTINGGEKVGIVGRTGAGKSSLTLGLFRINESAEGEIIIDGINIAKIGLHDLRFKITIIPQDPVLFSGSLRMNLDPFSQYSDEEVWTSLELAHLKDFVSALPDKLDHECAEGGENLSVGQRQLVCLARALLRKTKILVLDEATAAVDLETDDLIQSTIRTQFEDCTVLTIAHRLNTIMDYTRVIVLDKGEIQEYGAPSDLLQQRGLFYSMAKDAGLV

[7] = patients, 4-hour infusion; cited from earlier work
Pgp [8] = target: T1, Pgp; details: earlier finding; cited from earlier work
[9] = Tissue distribution and dose recovery (mass balance) of FK228 in the rat; type: in vivo; details: for dose excreted: male, Sprague-Dawley, intravenous
Protocol: as §1, §2, §3

[10] = Distribution of FK228 and metabolites between plasma and RBC after rat whole blood incubation; type: in vitro ADME, rat; details: for detection in RBC cytosol / homogenate / detection in plasma fraction: FK228 100 μg/mL, rat whole blood, 37° C., 60 min
Protocol: After centrifugation, the plasma was removed and the RBC fraction was washed 8 times with 2 mL saline each. […] The RBC debris was further washed with 1 mL acetonitrile each 8 times.
The blood was centrifuged to remove plasma. To the RBC fraction was added blank rat plasma to restore the initial volume, and the mixture was homogenized by a glass tissue grinder (400 strokes). The plasma and RBC homogenates were analyzed by ESI ion-trap LC-MS. A Waters Spherisorb S3 ODS1 column (2 mm ID×10 cm, particle 5 μm, Waters Corporation, Milford, Mass., USA) with a gradient elution was used. The gradient was initiated with 25% acetonitrile in 0.1% acetic acid for 5 minutes, followed by a linear increase to 70% acetonitrile over 5 minutes, which was kept constant for 15 minutes. The mobile phase was then returned linearly to the original condition over 3 minutes, which was then maintained for 7 minutes. The cycle time for each analysis was 35 minutes.

HDAC = test system: T2, HDAC; type: biochemical; details: for IC50: n=3, read-out: IC50, HDAC inhibitory activity; for times more potent as HDAC inhibitors than FK228: relative to FK228
T2 construct: other: n=3; other: relative to FK228
Protocol: To the plasma was added 2 mL acetonitrile to precipitate the proteins. After centrifugation, the acetonitrile layer was transferred to a clean Falcon polypropylene tube and evaporated to dryness under a stream of nitrogen. […] Their HDAC inhibitory activities were assayed by using the Fluor de Lys HDAC Fluorescent Activity Assay/Drug Discovery Kit (BioMol, Plymouth Meeting, Pa.).

in vitro = in vitro ADME; details: for half-life at 100 μg/mL: rat, plasma; for time to plateau or maximum concentration: FK228 100 μg/mL, 37° C.
Source text: Serial samples were removed at pre-selected time points up to […]. FK228 and its major metabolites were monitored by ESI LC_MS on the API instrument.

[11] = 2 mg/kg, I.v. bolus (n = 6), 2 mg/kg
[12] = I.v. bolus with CsA pretreatment (n = 3)
[13] = I.v. bolus with DEM pretreatment (n = 5)
[14] = after 1 hour whole blood incubation at 37° C.
[15] = rat plasma containing 10 mM GSH

## CCOC(=O)/C=C\C(=O)OCC [DEM, diethyl maleate]
RBC GSH
  depletion of RBC GSH: 50%

## C/C=C1\NC(=O)[C@H]2CSSCC/C=C/[C@H](CC(=O)N[C@H](C(C)C)C(=O)N2)OC(=O)[C@H](C(C)C)NC1=O [FK228, (E)-(1S,4S,10S,21R)-7-[(Z)-ethylidene]-4,21-diisopropyl-2-oxz-12,13-dithia-5,8,20,23-tetraazabicyclo[8,7,6]-tricos-16ene-3,6,9,19,22-pentanone]
[1]; following i.v. infusion
  plasma FK228 concentrations: < 20 nM
[1]; 2 mg/kg, I.v. bolus (n = 6)
  AUC(0-inf): 0.0683 µM·h
  Cmax: 490 ± 164 nM
  MRT: 36.3 min
[1]; [11]
  clearance: 237 ± 58 mL/min
  Vd: 32.7 ± 4.51 L/kg
[1]; 2 mg/kg, I.v. infusion (n = 6)
  Cmax: 25.3 ± 3.7 nM
  MRT: 17.7 min
  Vd: 10.8 ± 2.7 L/kg
[1]; [12]
  AUC(0-inf): 0.0667 µM·h
  Cmax: 548 ± 249 nM
  MRT: 27 min
  clearance: 249 ± 18 mL/min
  Vd: 29 ± 3.2 L/kg
[1]; [13]
  AUC(0-inf): 0.0903 µM·h
  MRT: 30 min
  clearance: 276 ± 152 mL/min
  Vd: 22.4 ± 13 L/kg
[1]; I.v. bolus with DEM pretreatment (n = 5), called C0 in text
  Cmax: 1180 ± 637 nM
[1]; I.v. infusion (n = 6)
  AUC(0-inf): 0.103 µM·h
  clearance: 179 ± 27.5 mL/min
  Vd: 11.8 ± 2.7 L/kg
[2]
  binding to plasma proteins: over 90%
  stability: stable
[3]
  distribution volume: 22.3 ± 7.3 L/kg
  total body clearance: 425.3 ± 117.7 mL/min
Pgp [4]
  Pgp substrate: substrate
[5]; male, Sprague-Dawley, rat, fresh heparinized whole blood
  recovery at 1 h, 10 μg/mL: < 35%
[5]; rat blood at 37° C., within 2 minutes, 0.1-10 μg/mL
  plasma FK228 remaining: over 20%
[6]
  MRP1 substrate: substrate
[7]
  maximum tolerated dose (MTD): 17.8 mg/m^2
Pgp [8]
  P-glycoprotein substrate: substrate
[9]
  total amount of FK228 in 24-hour urine and 6-hour bile: less than 11 % of the dose
[9]; 6 hours
  total recovery of intact FK228 from 9 major organ tissues: 2.5±1.26%
[9]; 24 hours
  total recovery of intact FK228 from 9 major organ tissues: 0.56±0.3%
[9]; bile, n=3, read-out: dose recovery from 6 hour bile
  dose excreted: 4.76 ± 0.34%
[9]; urine, 2 mg/kg, n=6, read-out: dose recovery from 24 hour urine
  dose excreted: 5.9 ± 1.6%

## C/C=C1\NC(=O)C(CS)NC(=O)C(C(C)C)NC(=O)CC(/C=C/CCS)OC(=O)C(C(C)C)NC1=O (centres unmarked) [metabolite A]
[10]
  fate in rat RBC: pumped out of rat RBC
HDAC
  IC50: 1.65 ± 0.24 nM
  times more potent as HDAC inhibitors than FK228: at least 46 times
In vitro
  half-life at 100 μg/mL: 18.5 min

## CC(C)C1NC(=O)CC(/C=C/CCS)OC(=O)C(C(C)C)NC(=O)C2NC(=O)C(CSC2C)NC1=O (centres unmarked) [metabolite B]
[10]
  detection in RBC cytosol / homogenate: detected
  detection in plasma fraction: detected
[10]; [14]
  fate in rat RBC: remained in rat RBC
HDAC
  IC50: 0.94 ± 0.14 nM
  times more potent as HDAC inhibitors than FK228: ≥ 82 times
In vitro; rat plasma containing 10 mM GSH, in words
  stability of metabolite: instable
In vitro; read-out: terminal half life
  half-life at 100 μg/mL: 14.4 min

## CC(C)C1NC(=O)CC(/C=C\CCSSCC(NC(=O)CCC(N)C(=O)O)C(=O)NCC(=O)O)OC(=O)C(C(C)C)NC(=O)C2NC(=O)C(CSC2C)NC1=O (centres unmarked) [metabolite D]
[10]
  detection in RBC cytosol / homogenate: detected
  detection in plasma fraction: detected
[10]; [14]
  fate in rat RBC: remained in rat RBC
HDAC
  IC50: 15.9 ± 2.7 nM
In vitro; [15]
  time to plateau or maximum concentration: 1 h

## CC(C)C1NC(=O)CC2/C=C/CCSSCC(NC1=O)C(=O)NC(C(C)SCC(NC(=O)CCC(N)C(=O)O)C(=O)NCC(=O)O)C(=O)NC(C(C)C)C(=O)O2 (centres unmarked) [metabolite E]
[10]
  detection in RBC cytosol / homogenate: detected; also recorded: minor peak
  detection in plasma fraction: minor peak
In vitro; [15]
  time to plateau or maximum concentration: 2 h

## CC(C)C1NC(=O)CC(/C=C/CCS)OC(=O)C(C(C)C)NC2(O)SCC(NC1=O)C(=O)NC2C(C)SCC(NC(=O)CCC(N)C(=O)O)C(=O)NCC(=O)O (centres unmarked) [metabolite F]
[10]
  detection in plasma fraction: detected
[10]; [14]
  fate in rat RBC: pumped out of rat RBC
